Results reported in patent US7879881B2, “Piperidinyl compounds that selectively bind integrins” (Janssen Pharmaceutica NV, priority 2002, dated 2011).

How the values were obtained:
Human αvβ3 = target: T1, Human αvβ3 (Homo sapiens, UniProt P05106+P06756); experiment: In Vitro Solid Phase Purified αvβ3 Binding Assay (vitronectin/αvβ3); settings: vitronectin binding to immobilized purified human αvβ3; mean ± spread; read-out: αvβ3IC50
T1 construct: purchased Chemicon International Inc., Temecula, Calif
T1 sequence (P06756 31-889 limits assumed): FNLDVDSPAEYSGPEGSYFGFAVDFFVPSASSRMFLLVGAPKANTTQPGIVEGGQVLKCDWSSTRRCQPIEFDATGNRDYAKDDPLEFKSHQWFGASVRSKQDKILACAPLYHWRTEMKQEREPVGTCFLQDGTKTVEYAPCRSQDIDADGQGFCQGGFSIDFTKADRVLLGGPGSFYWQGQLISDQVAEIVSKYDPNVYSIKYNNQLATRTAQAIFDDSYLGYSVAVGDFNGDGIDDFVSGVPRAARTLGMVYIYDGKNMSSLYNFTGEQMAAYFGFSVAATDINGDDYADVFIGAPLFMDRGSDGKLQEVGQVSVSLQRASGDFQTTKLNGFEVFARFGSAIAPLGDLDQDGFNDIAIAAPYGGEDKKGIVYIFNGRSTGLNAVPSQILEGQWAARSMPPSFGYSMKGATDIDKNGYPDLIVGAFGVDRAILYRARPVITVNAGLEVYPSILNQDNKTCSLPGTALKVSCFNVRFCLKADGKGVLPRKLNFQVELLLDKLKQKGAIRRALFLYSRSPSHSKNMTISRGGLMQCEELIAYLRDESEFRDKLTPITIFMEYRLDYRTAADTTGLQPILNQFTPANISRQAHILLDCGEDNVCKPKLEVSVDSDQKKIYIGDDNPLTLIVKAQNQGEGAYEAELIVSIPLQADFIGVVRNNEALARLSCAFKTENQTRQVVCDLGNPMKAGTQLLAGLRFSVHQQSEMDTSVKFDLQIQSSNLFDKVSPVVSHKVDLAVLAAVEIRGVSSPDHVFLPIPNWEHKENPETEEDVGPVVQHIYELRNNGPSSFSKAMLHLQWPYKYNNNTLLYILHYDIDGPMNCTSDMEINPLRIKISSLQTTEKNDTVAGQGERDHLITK
T1 sequence (P06756 891-1048 partner limits assumed): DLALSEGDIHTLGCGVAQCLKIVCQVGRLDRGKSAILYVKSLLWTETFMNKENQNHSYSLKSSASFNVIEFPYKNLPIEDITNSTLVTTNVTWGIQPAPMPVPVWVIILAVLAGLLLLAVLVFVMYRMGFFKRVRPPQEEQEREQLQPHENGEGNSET
T1 sequence (P05106 27-788): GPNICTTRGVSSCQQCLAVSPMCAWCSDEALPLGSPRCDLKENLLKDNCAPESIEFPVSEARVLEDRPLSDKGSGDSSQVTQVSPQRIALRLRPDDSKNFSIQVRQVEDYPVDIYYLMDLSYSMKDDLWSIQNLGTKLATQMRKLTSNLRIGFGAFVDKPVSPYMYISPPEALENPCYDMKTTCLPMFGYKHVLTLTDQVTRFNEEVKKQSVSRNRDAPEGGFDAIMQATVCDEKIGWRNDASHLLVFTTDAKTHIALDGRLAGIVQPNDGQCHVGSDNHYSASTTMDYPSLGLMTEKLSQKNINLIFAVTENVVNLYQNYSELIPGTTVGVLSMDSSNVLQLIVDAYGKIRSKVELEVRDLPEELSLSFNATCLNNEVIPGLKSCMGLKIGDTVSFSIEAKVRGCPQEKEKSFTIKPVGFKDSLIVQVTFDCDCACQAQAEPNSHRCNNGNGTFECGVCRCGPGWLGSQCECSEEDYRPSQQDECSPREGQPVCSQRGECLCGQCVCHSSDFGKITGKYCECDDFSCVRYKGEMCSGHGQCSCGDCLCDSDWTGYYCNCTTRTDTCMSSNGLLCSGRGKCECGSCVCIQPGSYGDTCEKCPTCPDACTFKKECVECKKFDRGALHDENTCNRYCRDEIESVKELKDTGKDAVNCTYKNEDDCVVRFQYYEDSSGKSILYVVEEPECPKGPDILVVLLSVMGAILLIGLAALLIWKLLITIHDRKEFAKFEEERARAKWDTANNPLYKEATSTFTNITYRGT
How it was run: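 Purified human αvβ3 immobilized at 1 μg/ml in Tris buffer with Ca, Mg and Mn; compounds competed with 2 nM vitronectin for 3 h at 37 °C. Bound vitronectin detected by anti-vitronectin antibody and peroxidase ABC, absorbance at 490 nm.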

human purified αVβ5 = target: T2, human purified αVβ5 (Homo sapiens, UniProt P06756+P18084); experiment: In Vitro Solid Phase Purified αcβ5 Binding Assay (vitronectin/αVβ5); settings: vitronectin binding to immobilized purified human αVβ5; mean ± spread; read-out: αvβ5 IC50
T2 construct: purchased Chemicon International, Inc
T2 sequence (P06756 31-889 limits assumed): as the sequence (P06756 31-889 limits assumed) above
T2 sequence (P06756 891-1048 partner limits assumed): as the sequence (P06756 891-1048 partner limits assumed) above
T2 sequence (P18084 24-799): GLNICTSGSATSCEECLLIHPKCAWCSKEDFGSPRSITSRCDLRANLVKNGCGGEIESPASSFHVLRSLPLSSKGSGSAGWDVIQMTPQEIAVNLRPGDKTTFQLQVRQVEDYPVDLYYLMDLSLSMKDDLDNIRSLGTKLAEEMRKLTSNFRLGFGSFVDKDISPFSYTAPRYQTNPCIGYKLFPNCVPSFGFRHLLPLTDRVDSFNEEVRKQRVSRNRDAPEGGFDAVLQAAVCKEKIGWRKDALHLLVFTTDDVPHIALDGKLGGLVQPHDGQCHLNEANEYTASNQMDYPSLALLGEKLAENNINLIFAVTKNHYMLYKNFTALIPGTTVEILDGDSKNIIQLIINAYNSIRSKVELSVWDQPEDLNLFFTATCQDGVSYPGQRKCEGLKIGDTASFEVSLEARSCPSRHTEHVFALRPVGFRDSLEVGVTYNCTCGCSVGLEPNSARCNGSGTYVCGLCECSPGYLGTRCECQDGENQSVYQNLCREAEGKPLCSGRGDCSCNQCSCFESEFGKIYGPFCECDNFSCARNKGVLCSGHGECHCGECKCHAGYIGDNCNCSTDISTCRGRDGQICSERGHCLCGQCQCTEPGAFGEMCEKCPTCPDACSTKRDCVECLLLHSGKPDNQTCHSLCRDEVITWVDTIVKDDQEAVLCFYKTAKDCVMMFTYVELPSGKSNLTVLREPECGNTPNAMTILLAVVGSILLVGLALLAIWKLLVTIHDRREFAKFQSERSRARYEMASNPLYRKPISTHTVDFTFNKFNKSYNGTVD
How it was run: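 Purified human integrin immobilized at 1 μg/ml in Tris buffer with Ca2+, Mg2+, Mn2+ and NaCl, then BSA-blocked. Compounds added just before 2 nM vitronectin, 3 h at 37 °C. Bound vitronectin detected by anti-vitronectin antibody with biotin/peroxidase (ABC) detection at 490 nm.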

GP IIb/IIIa = GP IIb/IIIa (Homo sapiens, UniProt P05106+P08514); experiment: In Vitro Solid Phase Purified GP IIb/IIIa Binding Assay (biotinylated fibrinogen); settings: biotinylated fibrinogen binding to immobilized purified GP IIb/IIIa; mean ± spread; read-out: αIIbβ3 IC50
Chain of GP IIb/IIIa (P08514 32-887 limits assumed): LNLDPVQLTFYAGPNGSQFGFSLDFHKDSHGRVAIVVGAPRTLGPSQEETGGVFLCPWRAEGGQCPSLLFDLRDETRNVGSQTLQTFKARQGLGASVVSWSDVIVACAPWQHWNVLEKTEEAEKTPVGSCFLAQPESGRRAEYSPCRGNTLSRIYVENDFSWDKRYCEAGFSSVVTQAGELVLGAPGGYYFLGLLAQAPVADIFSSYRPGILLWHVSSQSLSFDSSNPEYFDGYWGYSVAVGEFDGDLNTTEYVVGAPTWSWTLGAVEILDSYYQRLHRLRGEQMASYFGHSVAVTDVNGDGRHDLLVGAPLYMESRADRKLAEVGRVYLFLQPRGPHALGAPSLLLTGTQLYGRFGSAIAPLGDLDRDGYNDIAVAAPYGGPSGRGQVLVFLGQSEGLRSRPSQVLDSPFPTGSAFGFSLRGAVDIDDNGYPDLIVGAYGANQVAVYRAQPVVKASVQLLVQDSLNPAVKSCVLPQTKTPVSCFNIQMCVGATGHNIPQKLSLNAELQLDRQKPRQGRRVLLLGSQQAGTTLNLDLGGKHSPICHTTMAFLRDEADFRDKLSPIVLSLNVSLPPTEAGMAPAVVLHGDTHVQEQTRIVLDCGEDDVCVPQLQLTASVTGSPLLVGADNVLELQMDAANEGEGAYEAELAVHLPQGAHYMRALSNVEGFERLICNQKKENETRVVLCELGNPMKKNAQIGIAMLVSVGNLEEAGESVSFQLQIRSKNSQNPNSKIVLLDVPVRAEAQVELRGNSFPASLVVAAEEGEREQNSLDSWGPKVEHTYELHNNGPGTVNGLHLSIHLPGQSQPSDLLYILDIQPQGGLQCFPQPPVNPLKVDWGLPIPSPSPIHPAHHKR
Chain of GP IIb/IIIa (P08514 891-1039 partner limits assumed): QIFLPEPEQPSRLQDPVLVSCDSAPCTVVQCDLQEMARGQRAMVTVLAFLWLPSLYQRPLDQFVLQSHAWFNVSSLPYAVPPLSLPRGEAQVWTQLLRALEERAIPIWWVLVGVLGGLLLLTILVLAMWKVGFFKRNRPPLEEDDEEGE
Chain of GP IIb/IIIa (P05106 27-788): as the sequence (P05106 27-788) above
How it was run: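 Purified GP IIb/IIIa coated overnight at 4° C, blocked with 5% BSA, then incubated with test compound and biotinylated fibrinogen for 2-4 h at RT in modified Tyrodes buffer. Bound fibrinogen detected with avidin-biotin HRP complex and o-phenylenediamine/H2O2 (citrate/phosphate pH 5.3), stopped with 2 N H2SO4.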

IC50 (Human αvβ3) | IC50 (human purified αVβ5) | IC50 (GP IIb/IIIa) | Structure (SMILES)
484 nM | 2110 nM | > 50000 nM | O=C(O)CC(CC1CCN(C(=O)CCCc2ccc3c(n2)NCCC3)CC1)c1cc(F)cc(F)c1 (stereo not drawn) [Cpd 38, β-(3,5-difluorophenyl)-1-[1-oxo-4-(5,6,7,8-tetrahydro-1,8-naphthyridin-2-yl)butyl]-4-piperidinebutanoic acid]
1.8 ± 0.5 nM | 89.5 ± 25.5 nM | 160 ± 20 nM | O=C(O)CC(CCC1CCN(C(=O)c2cccc(NC3=NCC(O)CN3)c2)CC1)c1cnc2ccccc2c1 (stereo not drawn) [Cpd 49, β-[2-[1-[3-[(1,4,5,6-tetrahydro-5-hydroxy-2-pyrimidinyl)amino]benzoyl]-4-piperidinyl]ethyl]-3-quinolinepropanoic acid]
